Results from PMC12156181, “Antitrypanosomal and Antileishmanial Activities of Tacca leontopetaloides Tubers and Zanthoxylum zanthoxyloides Stem Bark” (Molecules, 2025).
Where two headings read alike, the source gives them in different places.

Key:
[1] = test system: T. b. brucei s427; set-up: method as in earlier work; conditions: cited from earlier work
[2] = test system: T. b. brucei s427; experiment: resazurin drug sensitivity assay, T. b. brucei s427 wild-type bloodstream forms; type: cell-based, Trypanosoma brucei brucei; conditions: for T. b. brucei s427 SI: SI = EC50 (HEK)/EC50(parasite); for EC50: read-out: T. b. brucei s427 EC50
[3] = test system: T. b. brucei B48; experiment: microbe, parasite or virus in culture; type: cell-based, Trypanosoma brucei brucei; conditions: for T. b. brucei B48 RF: RF = EC50 (parasite)/EC50(s427 WT); for T. b. brucei B48 SI: SI = EC50 (HEK)/EC50(parasite)
[4] = test system: T. evansi (AnTat 3/3); experiment: resazurin drug sensitivity assay, T. evansi; type: cell-based, Trypanosoma evansi; conditions: for T. evansi RF: RF = EC50 (parasite)/EC50(s427 WT); for T. evansi SI: SI = EC50 (HEK)/EC50(parasite); for EC50: Trypanosoma evansi
[5] = test system: T. equiperdum (BoTat1); experiment: resazurin drug sensitivity assay, T. equiperdum; type: cell-based, Trypanosoma equiperdum; conditions: for T. equiperdum RF: RF = EC50 (parasite)/EC50(s427 WT); for T. equiperdum SI: SI = EC50 (HEK)/EC50(parasite)
[6] = test system: Trypanosoma congolense (IL3000); experiment: resazurin drug sensitivity assay, T. congolense; type: cell-based; conditions: for T. congolense RF: RF = EC50 (parasite)/EC50(s427 WT); for T. congolense SI: SI = EC50 (HEK)/EC50(parasite)
[7] = test system: Leishmania mexicana promastigotes; experiment: resazurin drug sensitivity assay, L. mexicana promastigotes; type: cell-based; conditions: for L. mexicana SI: SI = EC50 (HEK)/EC50(parasite)
[8] = test system: HEK 293 cells; experiment: toxicity assay on HEK 293 cells (Alamar Blue); conditions: for toxicity to HEK 293 cells at the highest concentration tested: highest tested concentration 100 or 200 µg/mL (1: 300 µM; 4: 140 µM; 5: 427 µM); for EC50: read-out: HEK 293 EC50, average ± SEM
[9] = test system: trypanosomes of the Trypanozoon subgenus (T. b. brucei, T. evansi and T. equiperdum); experiment: resazurin assay, summary over Trypanozoon subgenus trypanosomes; type: cell-based, Trypanosoma; conditions: for EC50: Trypanosoma brucei, T. b. brucei s427, B48, T. evansi, T. equiperdum, read-out: EC50 values against trypanosomes of the Trypanozoon subgenus (range)
[10] = test system: T. b. brucei s427; set-up: method as in PMID 27313159; conditions: cited from earlier work
[11] = test system: all trypanosome species; experiment: resazurin assay, summary over trypanosome species; type: cell-based, Trypanosoma
[12] = test system: kinetoplastid parasites (trypanosomes and L. mexicana); experiment: resazurin assay, summary of anti-kinetoplastid activity across the board; type: cell-based; conditions: Leishmania mexicana, read-out: EC50, anti-kinetoplastid activity across the board (range)
[13] = test system: T. b. brucei s427; set-up: method as in doi:10.3390/M1070; conditions: read-out: EC50 against T. b. brucei s427; cited from earlier work
[14] = test system: macrophages RAW264.7; set-up: method as in doi:10.3390/M1070; conditions: normal cell lines; cited from earlier work
[15] = Trypanosoma brucei, read-out: T. b. brucei B48 EC50, multi-drug-resistant clone, average ± SEM
[16] = Trypanosoma equiperdum, average ± SEM
[17] = Trypanosoma congolense, average ± SEM
[18] = Leishmania mexicana, read-out: L. mexicana EC50, promastigotes, average ± SEM
[19] = Trypanosoma brucei, average ± SEM, at least three independent determinations
[20] = Leishmania mexicana, promastigotes, average ± SEM, read-out: L. mexicana EC50
[21] = printed in brackets beside the µg/mL value
[22] = a = EC50 of control for 1, 3, 4
[23] = b = EC50 of control for 5, 6, 7

SMILES | T. b. brucei s427 SI [2] | EC50 ([2]; Trypanosoma brucei) | T. b. brucei B48 RF [3] | T. b. brucei B48 SI [3] | EC50 [3, 15] | T. evansi RF [4] | T. evansi SI [4] | EC50 ([4]; average ± SEM) | T. equiperdum RF [5] | T. equiperdum SI [5] | EC50 [5, 16] | T. congolense RF [6] | T. congolense SI [6] | EC50 [6, 17] | EC50 [8] | EC50 [2, 19] | EC50 [7, 20] | further results
COc1ccc2c(c1OC)C(CC(C)=O)N(C)c1c-2ccc2cc3c(cc12)OCO3 (centres unmarked) [6-Acetonyl-5,6-dihydrochelerythrine] | – | – | – | – | – | – | – | – | – | – | – | – | – | – | – | – | – | activity against T. b. brucei s427 [1]: no significant activity
COc1ccc(C(=O)C[C@H](O)c2c(O)cc(OC)cc2OC)cc1 [Compound 1, (S)-3-hydroxy-3-(2″-hydroxy-4″,6″-dimethoxyphenyl)-1-(4′-methoxyphenyl)propan-1-one] | >8.5 | 35.5 ± 3.6 µM | 1.4 | >6.0 | 50.2 ± 15 µM | 1.3 | >6.5 | 46 ± 2.4 µM | 0.60 | >14 | ~20 µM | 6.9 | >1.2 | 246 ± 5 µM | > 300 µM | – | – | EC50 ([5]; average ± SEM): 21.4 ± 3.9 µM; EC50 [7, 18]: 581 ± 3 µM; toxicity to HEK 293 cells at the highest concentration tested [8]: non-toxic
CC(=O)O[C@@H]1[C@H]2[C@H]3[C@H]([C@H](OC(C)=O)[C@H](OC(C)=O)[C@]2(C)[C@@H]2[C@@H]1[C@]1(C)C(=C[C@H]2C)OC(=O)[C@@]1(C)O)[C@]1(C)[C@H](C[C@@H]2O[C@@H]2[C@@H]1OC(C)=O)C(=O)[C@@H]3O [Compound 3, taccalonolide A] | >2.2 | – | 0.7 | >3.1 | 45.4 ± 4.1 µM | 1.0 | >2.2 | 66.3 ± 9.5 µM | 0.86 | >2.6 | 55.8 µM | 1.6 | >1.4 | 105 ± 41 µM | > 143 µM | 64.7 ± 21.2 µM | > 285 µM | L. mexicana EC50 ([7]; promastigotes, average ± SEM): low activity; EC50 [9]: 45.4 to 66.3 µM; RF (cross-resistance) with B48, T. evansi and T. equiperdum ([9]; relative to s427): ≤ 1; activity against T. b. brucei s427 [10]: 11.42 µg/mL; activity against T. b. brucei s427 [10, 21]: 16.3 µM
CCC(=O)O[C@H]1[C@@H](OC(C)=O)[C@H]2[C@H]([C@@H]3[C@@H](OC(C)=O)[C@@H]4[C@H]([C@H](C)C=C5OC(=O)[C@@](C)(O)[C@@]54C)[C@]31C)[C@@H](O)C(=O)[C@H]1C[C@@H]3O[C@@H]3[C@H](OC(C)=O)[C@]21C [Compound 4, Taccalonolide A 12-propanoate] | >2.6 | – | 1.4 | >1.9 | 75.1 ± 12.3 µM | 1.6 | >1.7 | 82.7 ± 7.4 µM | 1.5 | >1.8 | 77.7 ± 10.5 µM | >2.8 | – | > 140 µM | > 140 µM | 53.4 µM | > 280 µM | EC50 ([2]; average ± SEM, at least three independent determinations): 53.3 ± 8.6 µM; L. mexicana EC50 ([7]; promastigotes, average ± SEM): low activity; activity against T. b. brucei s427 [10]: 3.13 µg/mL; activity against T. b. brucei s427 [10, 21]: 4.6 µM
CC(=O)O[C@H]1CC[C@]2(C)[C@H]3CC[C@]4(C)C(=CC[C@@]5(C)CCC(C)(C)C[C@H]54)[C@]3(C)CC[C@H]2C1(C)C [Compound 5, taraxerol acetate] | >3.1 | 138 ± 61 µM | 0.75 | >3.4 | 128 ± 5 µM | 0.4 | >6.8 | 62.9 ± 1.5 µM | 0.13 | >20 | ~20 µM | 1.1 | – | 178 ± 14 µM | > 427 µM | – | – | EC50 ([5]; average ± SEM): 21.3 ± 0.3 µM; EC50 [7, 18]: > 427 µM; EC50 ([11]; Trypanosoma equiperdum, all but T. equiperdum, read-out: EC50 against most trypanosome species): > 60 µM; toxicity to HEK 293 cells at the highest concentration tested [8]: not toxic
COc1ccc2c(c1OC)CN(C)c1c-2ccc2cc3c(cc12)OCO3 [Compound 6, dihydrochelerythrin] | 68.0 | – | 1.8 | 37.0 | 2.56 µM | 0.8 | 87 | 1.09 ± 0.06 µM | 2.2 | 30.4 | 3.09 ± 0.52 µM | 6.0 | 11.4 | 8.3 ± 0.57 µM | 94.4 ± 23.2 µM | 1.37 ± 0.43 µM | 5.4 ± 0.6 µM | EC50 ([3]; read-out: T. b. brucei B48 EC50, multi-drug-resistant clone, average ± SEM): 2.55 ± 0.29 µM; L. mexicana SI [7]: 18; EC50 ([7]; promastigotes, average ± SEM, read-out: L. mexicana EC50): 5.44 ± 0.57 µM; EC50 [9]: 1.37 to 3.09 µM; EC50 [12]: 1.4 to 8.3 µM
CC(C)CNC(=O)/C=C/c1ccc2c(c1)OCO2 [Compound 7, fagaramide] | 20.4 | 17.8 ± 7.3 µM | 0.6 | 33.8 | 10.9 ± 0.4 µM | 0.6 | 33.0 | 10.9 ± 0.4 µM | 1.5 | 13.4 | 27.1 ± 0.1 µM | 1.9 | 10.6 | 34.4 ± 5.7 µM | 364 ± 44 µM | – | 13.3 ± 0.4 µM | L. mexicana SI [7]: 27; EC50 ([11]; Trypanosoma, read-out: EC50 against all trypanosome species (range)): 10.9 to 34.4 µM; EC50 [12]: 10.9 to 34.4 µM; EC50 [13]: 7.3 µM; EC50 [14]: 215 µM
N=C(N)c1ccc(N=NNc2ccc(C(=N)N)cc2)cc1 [DA, diminazene aceturate, reference compound] | – | – | – | – | – | – | – | – | – | – | – | – | – | – | – | – | – | EC50 [6, 22]: 0.51 µM; EC50 [6, 23]: 0.46 µM
N=C(N)c1ccc(OCCCCCOc2ccc(C(=N)N)cc2)cc1 [PMD, pentamidine isethionate, reference compound] | – | – | approximately 50 | – | – | – | – | – | – | – | – | – | – | – | – | – | – | EC50 ([2]; Trypanosoma brucei, a = EC50 of control for 1, 3, 4): 0.0066 µM; EC50 ([2]; Trypanosoma brucei, b = EC50 of control for 5, 6, 7): 0.0052 µM; EC50 ([3]; Trypanosoma brucei, read-out: T. b. brucei B48 EC50, a = EC50 of control for 1, 3, 4): 0.312 µM; EC50 ([3]; Trypanosoma brucei, read-out: T. b. brucei B48 EC50, b = EC50 of control for 5, 6, 7): 0.288 µM; T. b. brucei B48 RF ([3]; a = control for 1, 3, 4): 47.3; T. b. brucei B48 RF ([3]; b = control for 5, 6, 7): 55.4; EC50 [4, 22]: 0.016 µM; EC50 [4, 23]: 0.0025 µM; EC50 ([5]; Trypanosoma equiperdum, a = EC50 of control for 1, 3, 4): 0.0081 µM; EC50 ([5]; Trypanosoma equiperdum, b = EC50 of control for 5, 6, 7): 0.0033 µM; EC50 ([7]; Leishmania mexicana, a = EC50 of control for 1, 3, 4, read-out: L. mexicana EC50): 1.1 µM; EC50 ([7]; Leishmania mexicana, b = EC50 of control for 5, 6, 7, read-out: L. mexicana EC50): 0.76 µM
